Data as given in PubChem BioAssay (NCI).
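GI50 = concentration required for 50% inhibition of growth. TGI denotes the concentration required for complete inhibition of growth.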

Columns and labels:
Test in all cases: NCI anticancer screen, dose series, 384-well format
EKVX NSCLC = system: EKVX NSCLC
HCT-116 colon = system: HCT-116 colon
T-47D breast = system: T-47D breast
786-0 renal = system: 786-0 renal
K-562 leukemia = system: K-562 leukemia
HS 578T breast = system: HS 578T breast
NCI/ADR-RES ovarian = system: NCI/ADR-RES ovarian
NCI-H460 NSCLC = system: NCI-H460 NSCLC
HT29 colon = system: HT29 colon
UO-31 renal = system: UO-31 renal
M14 melanoma = system: M14 melanoma
A549 NSCLC = system: A549 NSCLC
OVCAR-4 ovarian = system: OVCAR-4 ovarian
UACC-257 melanoma = system: UACC-257 melanoma
NCI-H522 lung = system: NCI-H522 lung
ACHN renal = system: ACHN renal
SF-539 CNS = system: SF-539 CNS
CAKI-1 renal = system: CAKI-1 renal
MDA-MB-468 breast = system: MDA-MB-468 breast
HL-60(TB) leukemia = system: HL-60(TB) leukemia
SW-620 colon = system: SW-620 colon
MCF7 breast = system: MCF7 breast
SK-MEL-28 melanoma = system: SK-MEL-28 melanoma
MDA-MB-435 melanoma = system: MDA-MB-435 melanoma
HCT-15 colon = system: HCT-15 colon
U251 glioblastoma = system: U251 glioblastoma
NCI-H23 lung = system: NCI-H23 lung
MDA-MB-231 breast = system: MDA-MB-231 breast
A498 renal = system: A498 renal
SK-MEL-5 melanoma = system: SK-MEL-5 melanoma
SF-268 CNS = system: SF-268 CNS
NCI-H226 lung = system: NCI-H226 lung
RXF 393 renal = system: RXF 393 renal
NCI-H322M lung = system: NCI-H322M lung
MOLT-4 leukemia = system: MOLT-4 leukemia
SK-OV-3 ovarian = system: SK-OV-3 ovarian
RPMI-8226 leukemia = system: RPMI-8226 leukemia
PC-3 prostate = system: PC-3 prostate
MALME-3M melanoma = system: MALME-3M melanoma
OVCAR-8 ovarian = system: OVCAR-8 ovarian
LOX IMVI melanoma = system: LOX IMVI melanoma
SN12C renal = system: SN12C renal
HOP-62 NSCLC = system: HOP-62 NSCLC
BT-549 breast = system: BT-549 breast
HCC-2998 colon = system: HCC-2998 colon
SF-295 CNS = system: SF-295 CNS
SNB-19 CNS = system: SNB-19 CNS
OVCAR-3 ovarian = system: OVCAR-3 ovarian
CCRF-CEM leukemia = system: CCRF-CEM leukemia
COLO 205 colon = system: COLO 205 colon
SNB-75 CNS = system: SNB-75 CNS
HOP-92 NSCLC = system: HOP-92 NSCLC
DU-145 prostate = system: DU-145 prostate
TK-10 renal = system: TK-10 renal
IGROV1 ovarian = system: IGROV1 ovarian
KM12 colon = system: KM12 colon
UACC-62 melanoma = system: UACC-62 melanoma

C[C@H](Nc1ccc2c(c1)OCCn1cc(N3C(=O)OC[C@H]3C(F)F)nc1-2)C(N)=O
GI50 (EKVX NSCLC): 2.99 µM
TGI (EKVX NSCLC): 46.7 µM
GI50 (HCT-116 colon): 25.9 µM
TGI (HCT-116 colon): > 100 µM
GI50 (T-47D breast): 0.0131 µM
TGI (T-47D breast): 0.0728 µM
GI50 ([…]-0 renal): 40.5 µM
TGI (786-0 renal): > 100 µM
GI50 (K-562 leukemia): > 100 µM
TGI (K-562 leukemia): > 100 µM
GI50 (HS 578T breast): 6.24 µM
TGI (HS 578T breast): 48.4 µM
GI50 (NCI/ADR-RES ovarian): > 100 µM
TGI (NCI/ADR-RES ovarian): > 100 µM
GI50 (NCI-H460 NSCLC): 0.802 µM
TGI (NCI-H460 NSCLC): > 100 µM
GI50 (HT29 colon): 0.289 µM
TGI (HT29 colon): > 100 µM
GI50 (UO-31 renal): 6.24 µM
TGI (UO-31 renal): > 100 µM
GI50 (M14 melanoma): > 100 µM
TGI (M14 melanoma): > 100 µM
GI50 (A549 NSCLC): 12.7 µM
TGI (A549 NSCLC): > 100 µM
GI50 (OVCAR-4 ovarian): 43.8 µM
TGI (OVCAR-4 ovarian): > 100 µM
GI50 (UACC-257 melanoma): > 100 µM
TGI (UACC-257 melanoma): > 100 µM
GI50 (NCI-H522 lung): 19 µM
TGI (NCI-H522 lung): > 100 µM
GI50 (ACHN renal): 15.2 µM
TGI (ACHN renal): > 100 µM
GI50 (SF-539 CNS): 17.6 µM
TGI (SF-539 CNS): > 100 µM
GI50 (CAKI-1 renal): 3.11 µM
TGI (CAKI-1 renal): 46.3 µM
GI50 (MDA-MB-468 breast): 1.57 µM
TGI (MDA-MB-468 breast): 10.9 µM
GI50 (HL-60(TB) leukemia): 0.156 µM
TGI (HL-60(TB) leukemia): 3.3 µM
GI50 (SW-620 colon): 95.4 µM
TGI (SW-620 colon): > 100 µM
GI50 (MCF7 breast): 0.039 µM
TGI (MCF7 breast): > 100 µM
GI50 (SK-MEL-28 melanoma): 7.96 µM
TGI (SK-MEL-28 melanoma): > 100 µM
GI50 (MDA-MB-435 melanoma): 58.1 µM
TGI (MDA-MB-435 melanoma): > 100 µM
GI50 (HCT-15 colon): 0.73 µM
TGI (HCT-15 colon): > 100 µM
GI50 (U251 glioblastoma): 75.8 µM
TGI (U251 glioblastoma): > 100 µM
GI50 (NCI-H23 lung): 21.8 µM
TGI (NCI-H23 lung): > 100 µM
GI50 (MDA-MB-231 breast): 25.9 µM
TGI (MDA-MB-231 breast): > 100 µM
GI50 (A498 renal): 15.2 µM
TGI (A498 renal): > 100 µM
GI50 (SK-MEL-5 melanoma): 43.4 µM
TGI (SK-MEL-5 melanoma): > 100 µM
GI50 (SF-268 CNS): 24 µM
TGI (SF-268 CNS): > 100 µM
GI50 (NCI-H226 lung): 38.5 µM
TGI (NCI-H226 lung): > 100 µM
GI50 (RXF 393 renal): 15.9 µM
TGI (RXF 393 renal): 71.4 µM
GI50 (NCI-H322M lung): 2.85 µM
TGI (NCI-H322M lung): 57.3 µM
GI50 (MOLT-4 leukemia): 1.07 µM
TGI (MOLT-4 leukemia): 10.6 µM
GI50 (SK-OV-3 ovarian): 0.049 µM
TGI (SK-OV-3 ovarian): > 100 µM
GI50 (RPMI-8226 leukemia): 16.1 µM
TGI (RPMI-8226 leukemia): 31.7 µM
GI50 (PC-3 prostate): 3.82 µM
TGI (PC-3 prostate): > 100 µM
GI50 (MALME-3M melanoma): 5.85 µM
TGI (MALME-3M melanoma): > 100 µM
GI50 (OVCAR-8 ovarian): 27 µM
TGI (OVCAR-8 ovarian): > 100 µM
GI50 (LOX IMVI melanoma): 12.5 µM
TGI (LOX IMVI melanoma): 43.9 µM
GI50 (SN12C renal): 5.74 µM
TGI (SN12C renal): > 100 µM
GI50 (HOP-62 NSCLC): 34.6 µM
TGI (HOP-62 NSCLC): > 100 µM
GI50 (BT-549 breast): 14.5 µM
TGI (BT-549 breast): > 100 µM
GI50 (HCC-2998 colon): 5.68 µM
TGI (HCC-2998 colon): > 100 µM
GI50 (SF-295 CNS): 14.6 µM
TGI (SF-295 CNS): > 100 µM
GI50 (SNB-19 CNS): 85.3 µM
TGI (SNB-19 CNS): > 100 µM
GI50 (OVCAR-3 ovarian): 3.27 µM
TGI (OVCAR-3 ovarian): 21.7 µM
GI50 (CCRF-CEM leukemia): 5.71 µM
TGI (CCRF-CEM leukemia): > 100 µM
GI50 (COLO 205 colon): 0.987 µM
TGI (COLO 205 colon): > 100 µM
GI50 (SNB-75 CNS): 3.2 µM
TGI (SNB-75 CNS): > 100 µM
GI50 (HOP-92 NSCLC): 2.2 µM
TGI (HOP-92 NSCLC): > 100 µM
GI50 (DU-145 prostate): 18 µM
TGI (DU-145 prostate): > 100 µM
GI50 (TK-10 renal): 4.03 µM
TGI (TK-10 renal): > 100 µM
GI50 (IGROV1 ovarian): 0.0195 µM
TGI (IGROV1 ovarian): 0.141 µM
GI50 (KM12 colon): 19.5 µM
TGI (KM12 colon): 54.2 µM
GI50 (UACC-62 melanoma): 5.64 µM
TGI (UACC-62 melanoma): > 100 µM
